Measured values published in patent publication US9963463B2, “Urea-substituted indanes as P38 map kinase inhibitors” (TORRENT PHARMACEUTICALS LIMITED, priority 2014, dated 2018).

biological target: T1, purified recombinant human p38 alpha MAPK (Homo sapiens, UniProt Q16539); assay: Inhibition of p38 alpha MAPK activity, TR-FRET kinase assay; assay type: biochemical; conditions: Concentration 100 nM; read-out: P38α Inhibition
T1 construct: purchased Millipore, USA
Method: Inhibition of p38 Alpha MAPK Activity: Time-Resolved Fluorescence Resonance Energy Transfer Kinase Standard Assay (TR-FRET Assay)
Compounds of present invention at various concentrations were premixed with DMSO. The experiment was initiated by mixing 0.5%-1.0% DMSO as vehicle/compounds with purified recombinant human p38 alpha MAPK (Millipore, USA) in the wells and 15 min incubation at room temperature. Thereafter, 30 nM of Biotinylated GST-ATF2 (Activation transcription Factor2) and 100 μM of ATP were added in to the wells containing reaction mixture, followed by reincubation for 60 minutes at RT. Reaction was terminated by addition of 10 mM of EDTA and detection reagent containing anti-phosphotheronine ATF2 antibody (PerkinElmer®, USA) labeled with europium chelate and APC (Allophycocyanin) labeled streptavidin, into the reaction mixture which was further incubated for 60 minutes at room temperature. The degree of phosphorylation of the substrate (GST-ATF2) was measured using Envision multimode reader (PerkinElmer®). Percentage inhibition of p38 kinase activity was calculated by determining ratio of specific europium 665 nm energy transfer signal to reference 615 nm signal.

T1 sequence (Q16539 whole entry): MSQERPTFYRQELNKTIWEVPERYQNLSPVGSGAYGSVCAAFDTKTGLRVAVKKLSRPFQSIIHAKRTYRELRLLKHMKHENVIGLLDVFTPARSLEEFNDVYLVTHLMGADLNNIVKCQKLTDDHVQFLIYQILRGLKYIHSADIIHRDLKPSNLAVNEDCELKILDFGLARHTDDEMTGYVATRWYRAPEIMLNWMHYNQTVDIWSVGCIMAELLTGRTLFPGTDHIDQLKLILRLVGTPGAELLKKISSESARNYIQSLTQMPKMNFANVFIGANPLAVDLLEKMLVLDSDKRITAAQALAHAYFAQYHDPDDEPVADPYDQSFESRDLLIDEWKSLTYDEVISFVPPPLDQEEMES

**Q.** How did the inhibition at 0.1 µM turn out when COc1c(NC(=O)Nc2ccc(OCCN3CCn4c(nnc4-c4cccc(O)c4)C3)c3c2CCC3)cc(C(C)(C)C)cc1NS(C)(=O)=O [Compound 46, N-(5-tert-butyl-3-{[(7-{2-[3-(3-hydroxyphenyl)-5,6-dihydro[1,2,4]triazolo[4,3-a]pyrazin-7(8H)-yl]ethoxy}-2,3-dihydro-1H-inden-4-yl)carbamoyl]amino}-2-methoxyphenyl)methanesulfonamide] was run?
**A.** The inhibition at 0.1 µM was 60 to 80%.

**Q.** For CC(C)(C)c1cc(NC(=O)Nc2ccc(OCCN3CCn4c(nnc4-c4ccc(O)cc4O)C3)c3c2CCC3)n(-c2ccc(O)c(Cl)c2)n1 [Compound 63, 1-[3-tert-butyl-1-(3-chloro-4-hydroxyphenyl)-1H-pyrazol-5-yl]-3-(7-{2-[3-(2,4-dihydroxyphenyl)-5,6-dihydro[1,2,4]triazolo[4,3-a]pyrazin-7(8H)-yl]ethoxy}-2,3-dihydro-1H-inden-4-yl)urea], which inhibition at 0.1 µM is on record?
**A.** Its inhibition at 0.1 µM is 60 to 80%.

same assay, conditions: Concentration 1 μM

**Q.** Which “P38α Inhibition” value does the source give for CCCSc1ccccc1-c1nnc2n1CCN(CCOc1ccc(NC(=O)Nc3cc(C(C)(C)C)cc(NS(=O)(=O)CC)c3OC)c3c1CCC3)C2 [Compound 50, N-[5-tert-butyl-2-methoxy-3-({[7-(2-{3-[2-(propylsulfanyl)phenyl]-5,6-dihydro[1,2,4]triazolo[4,3-a]pyrazin-7(8H)-yl}ethoxy)-2,3-dihydro-lH-inden-4-yl]carbamoyl}amino)phenyl] ethanesulfonamide] here?
**A.** Its value is “+++++ (+++++ = Inhibition ≥80% ≥ 100%)”.

**Q.** Which “P38α Inhibition” value does the source give for COc1ccccc1-c1nnc2n1CCN(CCOc1ccc(NC(=O)Nc3cc(C(C)(C)C)nn3-c3ccc(O)c(Cl)c3)c3c1CCC3)C2 [Compound 25, 1-[3-tert-buty1-1-(3-chloro-4-hydroxyphenyl)-1H-pyrazol-5-yl]-3-(7-{2-[3-(2-methoxyphenyl)-5,6-dihydro[1,2,4]triazolo[4,3-a]pyrazin-7(8H)-yl]ethoxy}-2,3-dihydro-1H-inden-4-yl)urea] here?
**A.** Its value is “+++++ (+++++ = Inhibition ≥80% ≥ 100%)”.

same assay, conditions: Concentration 1 μM; read-out: P38α Inhibition

**Q.** How did the inhibition at 1 µM turn out when COc1c(NC(=O)Nc2ccc(OCCN3CCN(CC4CC4)C(=O)C3)c3c2CCC3)cc(C(C)(C)C)cc1NC(=O)C1CC1 [Compound 64, N-(5-tert-butyl-3-{[(7-{2-[4-(cyclopropylmethyl)-3-oxopiperazin-1-yl]ethoxy}-2,3-dihydro-1H-inden-4-yl)carbamoyl]amino}-2-methoxyphenyl)cyclopropanecarboxamide] was run?
**A.** The inhibition at 1 µM was 20 to 40%.

**Q.** With CCCN1CCN(CCOc2ccc(NC(=O)Nc3cc(C(C)(C)C)nn3-c3ccc(C)cc3)c3c2CCC3)CC1=O [Compound 59, 1-[3-tert-butyl-1-(4-methylphenyl)-1H-pyrazol-5-yl]-3-{7-[2-(3-oxo-4-propylpiperazin-1-yl)ethoxy]-2,3-dihydro-1H-inden-4-yl}urea] as the molecule, how does the inhibition at 1 µM read?
**A.** The inhibition at 1 µM was 60 to 80%.

**Q.** Cc1ccc(-n2nc(C(C)(C)C)cc2NC(=O)Nc2cc(C)c(OCCN3CCn4c(nnc4-c4cc(Cl)ccc4O)C3)c3c2CCC3)cc1 [Compound 66, 1-[3-tert-butyl-1-(4-methylphenyl)-1H-pyrazol-5-yl]-3-(7-{2-[3-(5-chloro-2-hydroxyphenyl)-5,6-dihydro[1,2,4]triazolo[4,3-a]pyrazin-7(8H)-yl]ethoxy}-6-methyl-2,3-dihydro-1H-inden-4-yl)urea] was tested. Which inhibition at 1 µM did it give?
**A.** Its inhibition at 1 µM is < 20%.

**Q.** Which inhibition at 1 µM does the source give for CC(=O)Nc1cc2c(s1)CCN(C(=O)COc1ccc(NC(=O)Nc3cc(C(C)(C)C)nn3-c3ccc(C4CCCCC4)cc3)c3c1CCC3)C2 [Compound 55, N-[5-({[7-({[3-tert-butyl-1-(4-cyclohexylphenyl)-1H-pyrazol-5-yl]carbamoyl}amino)-2,3-dihydro-1H-inden-4-yl]oxy}acetyl)-4,5,6,7-tetrahydrothieno[3,2-c]pyridin-2-yl]acetamide] here?
**A.** Its inhibition at 1 µM is < 20%.

**Q.** For CC(C)(C)c1ccc(-n2nc(C(C)(C)C)cc2NC(=O)Nc2ccc(OCC(=O)N3CCn4c(nnc4C(F)(F)F)C3)c3c2CCC3)cc1 [Compound 2, 1-[3-tert-butyl-1-(4-tert-butylphenyl)-1H-pyrazol-5-yl]-3-(7-{2-oxo-2-[3-(trifluoromethyl)-5,6-dihydro[1,2,4]triazolo[4,3-a]pyrazin-7(8H)-yl]ethoxy}-2,3-dihydro-1H-inden-4-yl)urea], which inhibition at 1 µM is on record?
**A.** The inhibition at 1 µM was 20 to 40%.

**Q.** For CC(C)(C)c1cc(NC(=O)Nc2ccc(OCCN3CCN(CC4CC4)C(=O)C3)c3c2CCC3)n(-c2ccc(F)cc2)n1 [Compound 60, 1-[3-tert-butyl-1-(4-fluorophenyl)-1H-pyrazol-5-yl]-3-(7-{2-[4-(cyclopropylmethyl)-3-oxopiperazin-1-yl]ethoxy}-2,3-dihydro-1H-inden-4-yl)urea], which inhibition at 1 µM is on record?
**A.** The inhibition at 1 µM was 60 to 80%.

**Q.** For Cc1ccc(-n2nc(C(C)(C)C)cc2NC(=O)Nc2ccc(OCCN3CCn4c(nnc4-c4cccc5ccccc45)C3)c3c2CCC3)cc1 [Compound 67, 1-[3-tert-butyl-1-(4-methylphenyl)-1H-pyrazol-5-yl]-3-(7-{2-[3-(naphthalen-1-yl)-5,6-dihydro[1,2,4]triazolo[4,3-a]pyrazin-7(8H)-yl]ethoxy}-2,3-dihydro-1H-inden-4-yl)urea], which inhibition at 1 µM is on record?
**A.** The inhibition at 1 µM was 60 to 80%.

**Q.** How did the inhibition at 1 µM turn out when Cc1ccc(-n2nc(C(C)(C)C)cc2NC(=O)Nc2ccc(OCCN3CCn4c(nnc4-c4ccccc4O)C3)c3c2CCC3)cc1 [Compound 15, 1-[3-tert-butyl-1-(4-methylphenyl)-1H-pyrazol-5-yl]-3-(7-{2-[3-(2-hydroxyphenyl)-5,6-dihydro[1,2,4]triazolo[4,3-a]pyrazin-7(8H)-yl]ethoxy}-2,3-dihydro-1H-inden-4-yl)urea] was run?
**A.** Its inhibition at 1 µM is 80 to 100%.

**Q.** For CCCOc1ccccc1-c1nnc2n1CCN(CCOc1ccc(NC(=O)Nc3cc(C(C)(C)C)nn3-c3ccc(O)c(Cl)c3)c3c1CCC3)C2 [Compound 27, 1-[3-tert-butyl-1-(3-chloro-4-hydroxyphenyl)-1H-pyrazol-5-yl]-3-(7-{2-[3-(2-propoxyphenyl)-5,6-dihydro[1,2,4]triazolo[4,3-a]pyrazin-7(8H)-yl]ethoxy}-2,3-dihydro-1H-inden-4-yl)urea], which inhibition at 1 µM is on record?
**A.** The inhibition at 1 µM was 80 to 100%.

**Q.** With COc1c(NC(=O)Nc2ccc(OCCN3CCN(CC4CC4)C(=O)C3)c3c2CCC3)cc(C(C)(C)C)cc1NS(C)(=O)=O [Compound 39, N-(5-tert-butyl-3-{[(7-{2-[4-(cyclopropylmethyl)-3-oxopiperazin-1-yl]ethoxy}-2,3-dihydro-1H-inden-4-yl)carbamoyl]amino}-2-methoxyphenyl)methanesulfonamide] as the molecule, how does the inhibition at 1 µM read?
**A.** Its inhibition at 1 µM is 80 to 100%.

**Q.** Cc1ccc(-n2nc(C(C)(C)C)cc2NC(=O)Nc2ccc(OCC(=O)N3CCn4c(nnc4C(F)(F)F)C3)c3c2CCC3)cc1 [Compound 1, 1-[3-tert-butyl-1-(4-methylphenyl)-1H-pyrazol-5-yl]-3-(7-{2-oxo-2-[3-(trifluoromethyl)-5,6-dihydro[1,2,4]triazolo[4,3-a]pyrazin-7(8H)-yl]ethoxy}-2,3-dihydro-1H-inden-4-yl)urea] was tested. Which inhibition at 1 µM did it give?
**A.** Its inhibition at 1 µM is 80 to 100%.

**Q.** With CC(C)(C)c1cc(NC(=O)Nc2ccc(OCC(=O)N3CCn4c(nnc4-c4ccccc4SCCN4CCOCC4)C3)c3c2CCC3)n(-c2ccccc2)n1 [Compound 11, 1-(3-tert-butyl-1-phenyl-1H-pyrazol-5-yl)-3-(7-(2-[3-(2-{[2(morpholin-4-yl)ethyl]sulfanyl}phenyl)-5,6-dihydro[1,2,4]triazolo[4,3-a]pyrazin-7(8H)-yl]-2-oxoethoxy}-2,3-dihydro-1H-inden-4-yl)urea] as the molecule, how does the inhibition at 1 µM read?
**A.** Its inhibition at 1 µM is 80 to 100%.

**Q.** For Cc1ccc(-n2nc(C(C)(C)C)cc2NC(=O)Nc2ccc(OCC(=O)N3CCn4c(nnc4-c4ccccc4)C3)c3c2CCC3)cc1 [Compound 57, 1-[3-tert-butyl-1-(4-methylphenyl)-1H-pyrazol-5-yl]-3-{7-[2-oxo-2-(3-phenyl-5,6-dihydro[1,2,4]triazolo[4,3-a]pyrazin-7(8H)-yl)ethoxy]-2,3-dihydro-1H-inden-4-yl}urea], which inhibition at 1 µM is on record?
**A.** Its inhibition at 1 µM is 60 to 80%.

**Q.** How did the inhibition at 1 µM turn out when CCS(=O)(=O)Nc1cc(C(C)(C)C)cc(NC(=O)Nc2ccc(OCCN3CCn4c(nnc4-c4ccc(O)cc4O)C3)c3c2CCC3)c1OC [Compound 49, N-(5-tert-butyl-3-{[(7-{2-[3-(2,4-dihydroxyphenyl)-5,6-dihydro[1,2,4]triazolo[4,3-a]pyrazin-7(8H)-yl]ethoxy}-2,3-dihydro-1H-inden-4-yl)carbamoyl]amino}-2-methoxyphenyl)ethanesulfonamide] was run?
**A.** Its inhibition at 1 µM is 80 to 100%.

**Q.** How did the inhibition at 1 µM turn out when COc1c(NC(=O)Nc2ccc(OCCN3CCn4c(nnc4C4CCCCC4)C3)c3c2CCC3)cc(C(C)(C)C)cc1NS(C)(=O)=O [Compound 72, N-{5-tert-butyl-3-[({7-[2-(3-cyclohexyl-5,6-dihydro[1,2,4]triazolo[4,3-a]pyrazin-7(8H)-yl)ethoxy]-2,3-dihydro-1H-inden-4-yl}carbamoyl)amino]-2-methoxyphenyl}methanesulfonamide] was run?
**A.** The inhibition at 1 µM was 40 to 60%.

**Q.** Which inhibition at 1 µM does the source give for Cc1ccc(-n2nc(C(C)(C)C)cc2NC(=O)Nc2ccc(OCCN3CCN(CC4CCCC4)C(=O)C3)c3c2CCC3)cc1 [Compound 21, 1-[3-tert-butyl-1-(4-methylphenyl)-1H-pyrazol-5-yl]-3-(7-{2-[4-(cyclopentylmethyl)-3-oxopiperazin-1-yl]ethoxy}-2,3-dihydro-1H-inden-4-yl)urea] here?
**A.** Its inhibition at 1 µM is 80 to 100%.

**Q.** For CC(C)(C)c1cc(NC(=O)Nc2ccc(OCCN3CCN(CC4CC4)C(=O)C3)c3c2CCC3)n(-c2ccccc2)n1 [Compound 61, 1-(3-tert-butyl-1-phenyl-1H-pyrazol-5-yl)-3-(7-{2-[4-(cyclopropylmethyl)-3-oxopiperazin-1-yl]ethoxy}-2,3-dihydro-1H-inden-4-yl)urea], which inhibition at 1 µM is on record?
**A.** Its inhibition at 1 µM is 60 to 80%.
